This is an account of results in patent publication US9458181B2, “Cathepsin cysteine protease inhibitors” (Merck Sharp & Dohme Corp., priority 2013, dated 2016).

One assay deals with human cathepsin K (UniProt P43236). Kind of assay: Cathepsin K Assay (hrbCat K). Type of assay: biochemical. Conditions: human cathepsin K 0.4 nM, Z-Leu-Arg-AMC 8 μM, pH 5.5, 15 min preincubation; read-out: hrbCat K IP. On the procedure:
Cathepsin K Assay (hrbCat K)
(§1) Serial dilutions (⅓) from 500 μM down to 0.025 μM of test compounds were prepared in dimethyl sulfoxide (DMSO). Then 0.5 μL of DMSO from each dilution were added to 18.75 μL of assay buffer (MES, 50 mM (pH 5.5); EDTA, 2.5 mM; DTT, 2.5 mM and 10% DMSO) containing human cathepsin K (0.4 nM) in assay buffer solution. The assay solutions were mixed for 5-10 seconds on a shaker plate and incubated for 15 minutes at room temperature. Z-Leu-Arg-AMC (8 μM) in 6.25 μL of assay buffer was added to the assay solutions. Hydrolysis of the coumarin leaving group (AMC) was followed by spectrofluorometry (Exλ=360 nm; Emλ=460 nm) for 30 minutes. Percent of inhibition were calculated by fitting experimental values to standard mathematical model for dose response curve.

The next assay has as its target T1, human cathepsin F (Homo sapiens, UniProt Q9UBX1).
T1 sequence (Q9UBX1 271-484): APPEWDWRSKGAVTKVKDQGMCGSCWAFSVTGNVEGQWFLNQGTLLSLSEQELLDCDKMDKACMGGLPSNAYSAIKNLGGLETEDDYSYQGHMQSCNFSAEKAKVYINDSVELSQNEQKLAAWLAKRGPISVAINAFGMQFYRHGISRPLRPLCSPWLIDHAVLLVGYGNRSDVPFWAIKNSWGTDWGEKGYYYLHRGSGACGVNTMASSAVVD
Kind of assay: Cathepsin F assay (hCat F). Type of assay: biochemical. To be noted: human cathepsin F 10 nM, Z-Phe-Arg-AMC 8 μM, pH 5.5, 15 min preincubation; read-out: hCat F IP. As to the method:
Cathepsin F assay (hCat F)
as §1, with “F (10” for “K (0.4”, “Z-Phe-Arg-AMC” for “Z-Leu-Arg-AMC”, “(Exp, =360” for “(Exλ=360”, “EmX=460” for “Emλ=460”, “20” for “30”

Regarding `N#CC1(NC(=O)[C@@H]2CCCC[C@H]2c2oc(Cc3ccccc3)nc2-c2ccc(N3CCS(=O)(=O)CC3)cc2)CC1` [Example 50, (1R,2R)-2-(2-benzyl-4-(4-(1,1-dioxidothiomorpholino)phenyl)oxazol-5-yl)-N-(1-cyanocyclopropyl) cyclohexanecarboxamide], the IC50 turned out to be 1.6 nM on human cathepsin K and 698 nM on human cathepsin F.

Consider `Cc1nc(-c2ccc(N3CCS(=O)(=O)CC3)cc2)c([C@@H]2CCCC[C@H]2C(=O)NC2(C#N)CC2)s1` [Example 54, (1R,2R)-N-(1-cyanocyclopropyl)-2-(4-(4-(1,1-dioxidothiomorpholino)phenyl)-2-methylthiazol-5-yl)cyclohexanecarboxamide], for which the results for the IC50 on human cathepsin K and at human cathepsin F were 2.31 nM and 5310 nM, respectively.

On to `CS(=O)(=O)C1CN(c2ccc(-c3nc(-c4ccc(F)cc4F)oc3[C@@H]3CCCC[C@H]3C(=O)NC3(C#N)CC3)cc2)C1` [Example 39, (1R,2R)-N-(1-cyanocyclopropyl)-2-(2-(2,4-difluorophenyl)-4-(4-(3-(methylsulfonyl)azetidin-1-yl)phenyl)oxazol-5-yl) cyclohexanecarboxamide], for which the IC50 on human cathepsin K came to 2.11 nM; on human cathepsin F, 702 nM.

Turning to `N#Cc1ccccc1-c1nc(-c2ccc(N3CCS(=O)(=O)CC3)cc2)c([C@@H]2CCCC[C@H]2C(=O)NC2(C#N)CC2)o1` [Example 105, (1R,2R)-N-(1-cyanocyclopropyl)-2-(2-(2-cyanophenyl)-4-(4-(1,1-dioxidothiomorpholino)phenyl)oxazol-5-yl)cyclohexanecarboxamide], the IC50 is 2.4 nM on human cathepsin K and 1920 nM at human cathepsin F.

For the compound `N#CC1(NC(=O)[C@@H]2CCCC[C@H]2c2oc(-c3cc(F)cc(F)c3)nc2-c2ccc(N3CCS(=O)(=O)CC3)cc2)CC1` [Example 34, (1R,2R)-N-(1-cyanocyclopropyl)-2-(2-(3,5-difluorophenyl)-4-(4-(1,1-dioxidothiomorpholino)phenyl)oxazol-5-yl) cyclohexanecarboxamide], the IC50 was 0.85 nM on human cathepsin K and 442 nM on human cathepsin F.

Regarding `N#CC1(NC(=O)[C@@H]2CCCC[C@H]2c2oc(-c3ccc(Cl)c(F)c3)nc2-c2ccc(N3CCS(=O)(=O)CC3)cc2)CC1` [Example 76, (1R,2R)-2-(2-(4-chloro-3-fluorophenyl)-4-(4-(1,1-dioxidothiomorpholino)phenyl)oxazol-5-yl)-N-(1-cyanocyclopropyl) cyclohexanecarboxamide], at human cathepsin K, the IC50 was 1.1 nM.

As to `N#CC1(NC(=O)[C@@H]2CCCC[C@H]2c2oc(C(F)(F)c3ccccc3)nc2-c2ccc(N3CCS(=O)(=O)CC3)cc2)CC1` [Example 130, (1R,2R)-N-(1-cyanocyclopropyl)-2-(2-(difluoro(phenyl)methyl)-4-(4-(1,1-dioxidothiomorpholino)phenyl)oxazol-5-yl)cyclohexanecarboxamide], the IC50 turned out to be 1.25 nM on human cathepsin K and 70 nM at human cathepsin F.

With `N#CC1(NC(=O)[C@@H]2CCCC[C@H]2c2oc(-c3cccnn3)nc2-c2ccc(N3CCS(=O)(=O)CC3)cc2)CC1` [Example 97, (1R,2R)-N-(1-cyanocyclopropyl)-2-(4-(4-(1,1-dioxidothiomorpholino)phenyl)-2-(pyridazin-3-yl)oxazol-5-yl)cyclohexanecarboxamide], the IC50 on human cathepsin K was 2.83 nM; at human cathepsin F, 2550 nM.

With `N#CC1(NC(=O)[C@@H]2C[C@@H](F)CC[C@H]2c2oc(C(F)(F)F)nc2-c2ccc(N3CCS(=O)(=O)CC3)cc2)CC1` [Example 146, (1R,2R,5S)-N-(1-cyanocyclopropyl)-2-(4-(4-(1,1-dioxidothiomorpholino)phenyl)-2-(trifluoromethyl)oxazol-5-yl)-5-fluorocyclohexane-carboxamide], the IC50 at human cathepsin K came out at 1.92 nM; on human cathepsin F, 352 nM.

Take `N#CC1(NC(=O)[C@@H]2CCCC[C@H]2c2oc(N3CCOCC3)nc2-c2ccc(N3CCS(=O)(=O)CC3)cc2)CC1` [Example 47, (1R,2R)-N-(1-cyanocyclopropyl)-2-(4-(4-(1,1-dioxidothiomorpholino)phenyl)-2-morpholinooxazol-5-yl)cyclohexanecarboxamide]: the IC50 on human cathepsin K was 3.11 nM.

Turning to `N#CC1(NC(=O)[C@@H]2CCCC[C@H]2c2oc(-c3ccc(F)cn3)nc2-c2ccc(N3CCS(=O)(=O)CC3)cc2)CC1` [Example 32, (1R,2R)-N-(1-cyanocyclopropyl)-2-(4 (4-(1,1-dioxidothiomorpholino)phenyl)-2-(5-fluoropyridin-2-yl)oxazol-5-yl)cyclohexanecarboxamide], the IC50 on human cathepsin K turned out to be 3.12 nM; at human cathepsin F, 2490 nM.

As to `N#CC1(NC(=O)[C@@H]2C[C@@H](F)CC[C@H]2c2oc(-c3ccc(F)cc3F)nc2-c2ccc(N3CCS(=O)(=O)CC3)cc2)CC1` [Example 41, (1R,2R,5S)-N-(1-cyanocyclopropyl)-2-(2-(2,4-difluorophenyl)-4-(4-(1,1-dioxidothiomorpholino)phenyl)oxazol-5-yl)-5-fluorocyclohexane-carboxamide], the IC50 is 1.41 nM on human cathepsin K and 2190 nM on human cathepsin F.

As to `CC1CC1(C#N)NC(=O)[C@@H]1CCCC[C@H]1c1oc(-c2ccc(F)cc2)nc1-c1ccc(N2CCS(=O)(=O)CC2)cc1` (single isomer, unassigned) [Example 133, (1R,2R)-N-((2R or 2S)-1-cyano-2-methylcyclopropyl)-2-(4-(4-(1,1-dioxidothiomorpholino)phenyl)-2-(4-fluorophenyl)oxazol-5-yl)cyclohexanecarboxamide], the results for the IC50 on human cathepsin K and at human cathepsin F were 2.53 nM and 3140 nM, respectively.

Consider `N#CC1(NC(=O)[C@@H]2C[C@@H](F)CC[C@H]2c2oc(C(F)(F)C(F)(F)F)nc2-c2ccc(N3CCS(=O)(=O)CC3)cc2)CC1` [Example 42, (1R,2R,5S)-N-(1-cyanocyclopropyl)-2-(4-(4-(1,1-dioxidothiomorpholino)phenyl)-2-(perfluoroethyl)oxazol-5-yl)-5-fluorocyclohexane-carboxamide], for which the values for the IC50 at human cathepsin K and at human cathepsin F were 2.41 nM and 1860 nM, respectively.

`N#CC1(NC(=O)[C@@H]2CCCC[C@H]2c2oc(-c3ccc(F)cc3F)nc2-c2ccc(C(=O)N3CCOCC3)cc2)CC1` [Example 120, (1R,2R)-N-(1-cyanocyclopropyl)-2-(2-(2,4-difluorophenyl)-4-(4-(morpholine-4-carbonyl)phenyl)oxazol-5-yl)cyclohexanecarboxamide]: the IC50 at human cathepsin K was determined as 14.5 nM.

With `N#CC(CC(F)(F)F)NC(=O)[C@@H]1CC(F)(F)CC[C@H]1c1oc(C(F)(F)C(F)(F)F)nc1-c1ccc(C(=O)N2CCOCC2)cc1` (single isomer, unassigned) [Example 142, (1R,2R)-N-((R or S)-1-cyano-3,3,3-trifluoropropyl)-5,5 - difluoro-2-(4-(4-(morpholine-4-carbonyl)phenyl)-2-(perfluoroethyl)oxazol-5-yl)cyclohexanecarboxamide], the IC50 at human cathepsin K stood at 1.06 nM; at human cathepsin F it was 446 nM.

As to `CC(C)(C)OC(=O)Nc1ccc(-c2nc(-c3ccc(F)cc3)oc2[C@@H]2CCCC[C@H]2C(=O)NC2(C#N)CC2)cc1` [Example 49, tert-butyl (4-(5-((1R,2R)-2-((1-cyanocyclopropyl)carbamoyl)cyclohexyl)-2-(4-fluorophenyl)oxazol-4-yl)phenyl)carbamate], the IC50 on human cathepsin K worked out at 4.01 nM; at human cathepsin F, 1340 nM.

As to `N#CC1(NC(=O)[C@@H]2CCCC[C@H]2c2oc(-c3ccc(F)cc3)nc2-c2ccc(N3CCOCC3)cc2)CC1` [Example 17, (1R,2R)-N-(1-cyanocyclopropyl)-2-(2-(4-fluorophenyl)-4-(4-morpholinophenyl)oxazol-5-yl)cyclohexanecarboxamide], the IC50 at human cathepsin K was determined as 9.36 nM.

With `CC(C#N)NC(=O)[C@@H]1CCCC[C@H]1c1oc(-c2ccc(F)cc2F)nc1-c1ccc(N2CCS(=O)(=O)CC2)cc1` (single isomer, unassigned) [Example 45, (1R,2R)-N-((R or S)-1-cyanoethyl)-2-(2-(2,4-difluorophenyl)-4-(4-(1,1-dioxidothiomorpholino)phenyl)oxazol-5-yl)cyclohexanecarboxamide], the IC50 at human cathepsin K came to 32.7 nM.

`N#CC1(NC(=O)[C@@H]2CCCC[C@H]2c2oc(-c3ccc(S(=O)(=O)C(F)(F)F)cc3)nc2-c2ccc(N3CCS(=O)(=O)CC3)cc2)CC1` [Example 104, (1R,2R)-N-(1-cyanocyclopropyl)-2-(4-(4-(1,1-dioxidothiomorpholino)phenyl)-2-(4-((trifluoromethyl)sulfonyl)phenyl)oxazol-5-yl)cyclohexanecarboxamide]: the IC50 on human cathepsin K was found to be 2.4 nM.
